The term MIC denotes the least concentration at which growth counts as inhibited. High values mean a need for much substance, low ones inhibition by little substance.

One test relates to Candida albicans. Put plainly: Antifungal activity against Candida albicans after 24 hrs by broth dilution assay. In kind it is functional.
For the next test, the system named is Cladosporium cucumerinum. The test is described as follows: Antifungal activity against Cladosporium cucumerinum at 5 ug by bioautographic TLC test. In kind it is functional, organism-based.

In brackets after ≈: the same amount, converted by molar mass. Activity calls are given as the source filed them. The calls are words filed in the database; no cut-off is given here.

With `CC(C)=CC(=O)c1cc(C(=O)O)cc(O)c1O`, the result in the test with Candida albicans was inactive.
Consider `COC(=O)c1cc(O)c(O)c(C(=O)C=C(C)C)c1` [LANCEAEFOLIC ACID METHYL ESTER], for which the MIC against Candida albicans worked out at 100 µg/mL (≈ 400 µM).
As for `COC(=O)c1cc(O)c2c(c1)C(=O)CC(C)(C)O2`, in the test on Candida albicans, the outcome was inactive.
Turning to `CC1(C)CC(=O)c2cc(C(=O)O)cc(O)c2O1`, the result in the test on Candida albicans was inactive.
`CC(C)=CC(=O)c1cc(C(=O)O)ccc1O`: the outcome with Candida albicans and in the test on Cladosporium cucumerinum was inactive.

These data come from ChEMBL document CHEMBL1137809, “Antifungal activity of benzoic acid derivatives from Piper lanceaefolium” (2002).
